These are literature values, as cited in patent US20070135435A1, “Certain chemical entities, compositions, and methods” (priority 2005, published 2007).

In general, GI50 refers to the concentration at which growth is held to half of that of the control.

This data set concerns A549 cells.
`O=c1[nH]cc(F)c(=O)[nH]1` [5-fluorouracil]: the 50% growth inhibitory concentration (GI50) was 1000 nM. As to `COc1cccc2c1C(=O)c1c(O)c3c(c(O)c1C2=O)C[C@@](O)(C(=O)CO)C[C@@H]3O[C@H]1C[C@H](N)[C@H](O)[C@H](C)O1` [doxorubicin], the GI50 is 63 nM. With `NC(=O)NO` [hydroxyurea], the concentration for 50% growth inhibition (GI50) was 500000 nM. Take `CC(=O)O[C@H]1C(=O)[C@@]2(C)[C@H]([C@H](OC(=O)c3ccccc3)[C@]3(O)C[C@H](OC(=O)[C@H](O)[C@@H](NC(=O)c4ccccc4)c4ccccc4)C(C)=C1C3(C)C)[C@]1(OC(C)=O)CO[C@@H]1C[C@@H]2O` [paclitaxel]: the GI50 was 4 nM.
